Experimental data: PubChem BioAssay AID330 (DTP/NCI, 2004)
“And” between values parts separate entries of the source, which are not always exact repeats. Identical values can stand only once. Inconclusive results and toxic doses are left out. How the source made its calls: active means survival T/C of 150% or more; inactive means T/C below 125% in these data.

Test system: P388 leukemia ip, CD2F1 mice, survival T/C
Assay: NCI In Vivo Anticancer Drug Screen. Data for tumor model P388 Leukemia (intraperitoneal) in CD2F1 (CDF1) mice
Conditions: endpoint: median survival time, higher = longer survival
Outline: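 Mice carrying the transplanted tumor received test compound or vehicle. Survival was recorded in each group, and the value is the treated-group measurement divided by that of the vehicle-treated control group.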

[1] = dose: 100.0 mg/kg/injection, schedule: Q01DX009 (ip), vehicle: saline
[2] = dose: 200.0 mg/kg/injection, schedule: Q01DX009 (ip), vehicle: saline
[3] = dose: 60.0 mg/kg/injection, schedule: Q01DX005 (ip), vehicle: Klucel (hydroxypropylcellulose) (HPC)
[4] = dose: 120.0 mg/kg/injection, schedule: Q01DX005 (ip), vehicle: Klucel (hydroxypropylcellulose) (HPC)
[5] = dose: 240.0 mg/kg/injection, schedule: Q01DX005 (ip), vehicle: Klucel (hydroxypropylcellulose) (HPC)
[6] = dose: 50.0 mg/kg/injection, schedule: Q01DX005 (ip), vehicle: Klucel (hydroxypropylcellulose) (HPC)
[7] = dose: 100.0 mg/kg/injection, schedule: Q01DX005 (ip), vehicle: Klucel (hydroxypropylcellulose) (HPC)
[8] = dose: 200.0 mg/kg/injection, schedule: Q01DX005 (ip), vehicle: Klucel (hydroxypropylcellulose) (HPC)

Measured: T/C

CN1C(=O)CN2CCc3ccccc3C2c2cc(Cl)ccc21 (configuration not stated)
inactive: dose: 50.0 mg/kg/injection, schedule: Q01DX005 (ip), vehicle: saline with Tween-80 92 % of control | dose: 100.0 mg/kg/injection, schedule: Q01DX005 (ip), vehicle: saline with Tween-80 98 % of control | dose: 200.0 mg/kg/injection, schedule: Q01DX005 (ip), vehicle: saline with Tween-80 98 % of control

COc1ccc(C=C2C(=O)N(C)C(=O)N(C)C2=O)cc1
inactive: dose: 50.0 mg/kg/injection, schedule: Q01DX009 (ip), vehicle: saline with Tween-80 112 % of control | dose: 100.0 mg/kg/injection, schedule: Q01DX009 (ip), vehicle: saline with Tween-80 118 % of control

CN=C(N)NN
inactive: dose: 25.0 mg/kg/injection, schedule: Q01DX009 (ip), vehicle: saline 101 % of control | dose: 50.0 mg/kg/injection, schedule: Q01DX009 (ip), vehicle: saline 97 % of control | [1] 93 % of control | [2] 97 % of control

[O-]c1nc(C(F)(F)F)nc(C(F)(F)F)c1-[n+]1ccccc1
inactive: [3] 108 % of control | [4] 104 % of control | [5] 96 % of control

O=C(/C=N/Nc1ccccc1)Nc1ccccc1C(=O)O
inactive: [6] 102 % of control | [7] 105 % of control | [8] 93 % of control

CCOC1(OCC)C(=O)N(c2ccc(Cl)c(Cl)c2)C(=O)N1c1ccc(Cl)c(Cl)c1
inactive: dose: 100.0 mg/kg/injection, schedule: Q04DX003 (ip), vehicle: saline 95 % of control | dose: 200.0 mg/kg/injection, schedule: Q04DX003 (ip), vehicle: saline 92 % of control | dose: 400.0 mg/kg/injection, schedule: Q04DX003 (ip), vehicle: saline 89 % of control

CC1(C)CC(OP(=[Se])(c2ccccc2)c2ccccc2)CC(C)(C)N1O
inactive: dose: 12.5 mg/kg/injection, schedule: Q01DX001 (ip), vehicle: Klucel (hydroxypropylcellulose) (HPC) 96 % of control | dose: 25.0 mg/kg/injection, schedule: Q01DX001 (ip), vehicle: Klucel (hydroxypropylcellulose) (HPC) 99 % of control | dose: 50.0 mg/kg/injection, schedule: Q01DX001 (ip), vehicle: Klucel (hydroxypropylcellulose) (HPC) 104 % of control

CCCCCCCC/C=C\CCCCCCCC(=O)OCCSCCOC(C)=O
inactive: dose: 50.0 mg/kg/injection, schedule: Q01DX009 (ip), vehicle: Klucel (hydroxypropylcellulose) (HPC) 94 % of control | dose: 100.0 mg/kg/injection, schedule: Q01DX009 (ip), vehicle: Klucel (hydroxypropylcellulose) (HPC) 101 % of control | dose: 200.0 mg/kg/injection, schedule: Q01DX009 (ip), vehicle: Klucel (hydroxypropylcellulose) (HPC) 94 % of control

Cc1nnsc1C(=O)NCc1c(F)cccc1Cl
inactive: [6] 97 % of control | [7] 99 % of control | [8] 98 % of control

CC(C)[C@](O)(C(=O)OCC1=CCN2CC[C@@H](O)[C@@H]12)[C@H](C)O
inactive: dose: 25.0 mg/kg/injection, schedule: Q01DX009 (ip), vehicle: water 105 % of control | dose: 50.0 mg/kg/injection, schedule: Q01DX009 (ip), vehicle: water 100 % of control and 104 % of control | dose: 100.0 mg/kg/injection, schedule: Q01DX009 (ip), vehicle: distilled water + Tween-80 103 % of control | [1] 97 % of control | dose: 100.0 mg/kg/injection, schedule: Q01DX009 (ip), vehicle: water 105 % of control and 107 % of control | dose: 200.0 mg/kg/injection, schedule: Q01DX009 (ip), vehicle: distilled water + Tween-80 112 % of control | [2] 114 % of control | dose: 200.0 mg/kg/injection, schedule: Q01DX009 (ip), vehicle: water 107 % of control and 113 % of control | dose: 400.0 mg/kg/injection, schedule: Q01DX009 (ip), vehicle: distilled water + Tween-80 113 % of control | dose: 400.0 mg/kg/injection, schedule: Q01DX009 (ip), vehicle: saline 112 % of control | dose: 800.0 mg/kg/injection, schedule: Q01DX009 (ip), vehicle: distilled water + Tween-80 103 % of control

Nc1ncnc2c1ncn2CC1OC(O)C(O)C1NC(=O)C(N)Cc1ccccc1 (configuration not stated)
inactive: dose: 8.0 mg/kg/injection, schedule: Q01DX005 (ip), vehicle: saline 94 % of control | dose: 16.0 mg/kg/injection, schedule: Q01DX005 (ip), vehicle: saline 106 % of control | dose: 32.0 mg/kg/injection, schedule: Q01DX005 (ip), vehicle: saline 94 % of control | dose: 64.0 mg/kg/injection, schedule: Q01DX005 (ip), vehicle: saline 101 % of control | dose: 128.0 mg/kg/injection, schedule: Q01DX005 (ip), vehicle: saline 94 % of control | dose: 256.0 mg/kg/injection, schedule: Q01DX005 (ip), vehicle: saline 97 % of control

C[n+]1cccc(C(=O)O)c1
inactive: dose: 25.0 mg/kg/injection, schedule: Q01DX005 (ip), vehicle: saline 100 % of control | dose: 50.0 mg/kg/injection, schedule: Q01DX005 (ip), vehicle: saline 101 % of control | dose: 100.0 mg/kg/injection, schedule: Q01DX005 (ip), vehicle: saline 99 % of control | dose: 200.0 mg/kg/injection, schedule: Q01DX005 (ip), vehicle: saline 91 % of control

Cc1ccc(C2OC(N)=C(O)C2=O)cc1 (configuration not stated)
inactive: [3] 107 % of control | [4] 100 % of control | [5] 93 % of control

CCOC(=O)C(CC)C(=O)c1ccccc1 (configuration not stated)
inactive: dose: 75.0 mg/kg/injection, schedule: Q01DX009 (ip), vehicle: saline with Tween-80 105 % of control | dose: 150.0 mg/kg/injection, schedule: Q01DX009 (ip), vehicle: saline with Tween-80 109 % of control | dose: 300.0 mg/kg/injection, schedule: Q01DX009 (ip), vehicle: saline with Tween-80 112 % of control

COc1cccc2c1C(=O)c1c(O)c3c(c(O)c1C2=O)C[C@@](O)(C(C)=O)C[C@@H]3OC1CC(N)C(OC2CC(N)C(OC)C(C)O2)C(C)O1 (some centres not stated)
inactive: dose: 3.13 mg/kg/injection, schedule: Q04DX003 (ip), vehicle: water 110 % of control and 115 % of control | dose: 6.25 mg/kg/injection, schedule: Q04DX003 (ip), vehicle: water 119 % of control and 123 % of control | dose: 50.0 mg/kg/injection, schedule: Q04DX003 (ip), vehicle: water 112 % of control

C=C1C(=O)C23C(OC(=O)CCCCCCCCCCCCCCC)C1CCC2C12COC3(O)C(O)C1C(C)(C)CCC2O (configuration not stated)
inactive: dose: 3.75 mg/kg/injection, schedule: Q01DX009 (ip), vehicle: saline with Tween-80 101 % of control | dose: 7.5 mg/kg/injection, schedule: Q01DX009 (ip), vehicle: saline with Tween-80 104 % of control | dose: 15.0 mg/kg/injection, schedule: Q01DX009 (ip), vehicle: saline with Tween-80 103 % of control | dose: 30.0 mg/kg/injection, schedule: Q01DX009 (ip), vehicle: saline with Tween-80 99 % of control

Cn1cnc([N+](=O)[O-])c1Sc1nc(N)nc2nc[nH]c12
inactive: dose: 25.0 mg/kg/injection, schedule: Q01DX009 (ip), vehicle: saline with Tween-80 109 % of control | dose: 50.0 mg/kg/injection, schedule: Q01DX009 (ip), vehicle: saline sonified 109 % of control | dose: 100.0 mg/kg/injection, schedule: Q04DX003 (ip), vehicle: Klucel (hydroxypropylcellulose) (HPC) 122 % of control

Cc1cc(C)nc(/C=C/c2ccc(/C=C/c3cc(C)cc(C)n3)cc2)c1
inactive: dose: 60.0 mg/kg/injection, schedule: Q01DX005 (ip), vehicle: saline with Tween-80 97 % of control | dose: 120.0 mg/kg/injection, schedule: Q01DX005 (ip), vehicle: saline with Tween-80 87 % of control | dose: 240.0 mg/kg/injection, schedule: Q01DX005 (ip), vehicle: saline with Tween-80 92 % of control
